# Measured values as given in patent US7598279B2, “Neurotherapeutic azole compounds” (SK Holdings Co., Ltd., priority 2005, dated 2009).
# Key:
# mice [1] = assay: Forced swimming test (FST); assay type: in vivo; settings: 30 min after dosing
# Procedure: The “Forced swimming test (FST)” for antidepressant activity was also carried out. The procedure employed in the FST for antidepressant is as follows. The compounds to be tested were dissolved in 30% PEG400 and administered ip and po into animals. 30 min later, the immobility time during post 4 minutes of 6 minutes experiment time was measured.
# mice [2] = assay: Maximal ElectroShock (MES)-induced tonic seizure test; assay type: in vivo; settings: Mus musculus; for ED50: read-out: Mice MES ED50 (mpk/peak time); for responders at 50 mg/kg: 4 h
# Procedure: The “Maximal ElectroShock (MES)” test is a well-established pharmacological screening method for anticonvulsants against tonic-clonic seizures. The procedure employed in the MES test for anticonvulsants is as follows. The compounds to be tested were dissolved in 30% PEG400 and administered ip and po into animals. After the designated number of hours, maximal electroshock (50 mA, 60 Hz, 0.2 sec) was applied into animals via corneal electrodes using IITC Life Science model 11A Shocker. […] Median efficacy dose (ED50) levels were determined using three different dose levels with at least 8 mice in each group.
# [3] = test system: TBPS site of GABA-A receptor; assay: GABA-A receptor (TBPS site) binding assay, [35S]TBPS; settings: 100 μM; rat brain membranes, 2 nM [35S]TBPS
# Procedure: Compounds of the inventions were tested for specific binding to TBPS (t-butyl bicyclophosphorothionate) site, an allosteric modulator site of GABA-A receptor as modified from G. Maksay and M. Simonyi, Eur. J. Pharmacol. 1985, 117(2), 275. and Gee, K. W. et al., J. Pharm. Exp. Ther. 1988, 246, 803.
# This binding assay was performed using [35S] TBPS as radioligand in washed crude membrane homogenate from rat brains. Membrane preparations were carried out according to procedure described below. Sprague-Dawley (SD) rat weighting 230 g were killed by decapitation and their whole brains were rapidly removed and its cerebellums were excluded. The dissected brains were homogenized for 30 sec in 10 volumes (W/V) of ice-cold 0.32 M Sucrose and 50 mM Tris-citrate buffer pH 7.4 using glass homogenate. The homogenate was centrifuged at 2,000×g for 5 min at 4° C. And the supernatant re-centrifuged at 50,000×g for 20 min at 4° C. The supernatant was discarded and the resulting pellets were resuspended in 10 volumes (W/V) of ice-cold 50 mM Tris-citrate buffer pH 7.4. And then the suspended pellet was centrifuged at 50,000×g for 20 min at 4° C. The resulting pellets were suspended again in 32 volumes (W/V) of ice-cold 50 mM Tris-citrate buffer pH 7.4 with 0.05% Triton X-100 and then incubated in 37° C. for 60 min using a water bath. The incubated suspension was centrifuged at 50,000×g for 20 min at 4° C. Resuspending and centrifugation step of the remained pellets were repeated twice at the same manner and final pellets were resuspended in 10 volumes (W/V) of ice-cold 50 mM Tris-citrate buffer pH 7.4 to enable distribution of 2 ml aliquot in microcentrifuge tube, which were used immediately or kept at −80° C. for no more than 1 month before use.
# For TBPS site binding assay, 50 μl of the tested compound were added to 100 μg membrane protein suspended in 0.15 ml of 50 mM Tris-citrate buffer with 200 mM NaCl pH 7.4 in presence of 2 nM of [35S] TBPS. The incubation of mixtures were carried out for 1.5 hours at 25° C. and then rapidly filtered over Whatman GF/C glass fiber filters, followed by twice 4.5 ml rinses with ice-cold incubation buffer. The filters were placed in counting vials and 4 ml scintillation solution. The vials were counted in a Beckman scintillation counter. Non-specific binding was determined in parallel incubations with 100 μM picrotoxin.
# IC50 values for TBPS site binding assay was calculated using Graphpad PRISM v.3.00.
# rat dopamine transporter = target: T1, rat dopamine transporter (Rattus norvegicus, UniProt P23977); assay: Dopamine transport (DAT) assay, [3H]dopamine uptake in CHO D8 cells; assay type: cell-based
# T1 construct: expressed in transfected cells
# Procedure: The “Dopamine Transport (DAT)” assay for dopamine uptake inhibition was also carried out. In order to test dopamine uptake inhibition, compounds of the inventions were assayed as modified from Zhaoping Liu et. al., Neuropharmacology, 2001, 41, 464.
# Cultured CHO cells were […] with recombinant plasmid, DAT-pCDNA3, which encodes rat dopamine transporter. Several subclones were selected and assayed for [3H] dopamine uptake. The clone with the highest uptake, designated D8, was chosen for Dopamine transport assay of compounds.
# For the Dopamine transport assay, D8 cells were cultured in 48-well plate using RMPI1640 containing 10% FCS. D8 cells, grown to 60,000 cells per well, each wells were rinsed once with phosphate buffered saline (PBS) and pre-incubated in 100 μl Hank's balanced salt solution (HBSS) for 10 min at room temperature. The buffer was then changed to 50 μl HBSS containing the tested compounds and 350 μl HBSS containing reaction components ([3H] dopamine, ascorbic acid and pargyline). Final concentrations of [3H] dopamine, ascorbic acid and pargyline are 151 nM, 100 μM and 100 μM, respectively. The cells were incubated for 20 min at room temperature and the reaction was terminated by aspiration of the buffer and washed three times with 1 ml cold BS. The cells were then solubilized in 2N NaOH and an aliquot was measured by liquid scintillation counting to quantify the uptake of [3H] dopamine.
# mice [4] = assay: Pentylenetetrazol (PTZ)-induced clonic seizure test; assay type: in vivo; settings: Mus musculus, sc, read-out: Mice PTZ ED50 (mpk/peak time)
# Procedure: The “Pentylenetetrazol (PTZ)” test for anticonvulsant and antianxiety activity was also carried out.
# The procedure employed in the PTZ test is as follows. The compounds to be tested were dissolved in 30% PEG400 and administered ip and po into animals. After the designated number of hours, each animal was injected subcutaneously with 100 mg/kg of PTZ (CD97 dose) and observed for up to 30 minutes for the presence or absence of clonic spasms over 5 seconds. Median efficacy dose (ED50) levels were determined using three different dose levels with 8 mice in each group.
# mice [5] = assay: Light-Dark Box (LDB) test; assay type: in vivo; settings: treated 30 min prior to testing
# Procedure: Light-Dark Box (LDB) test, one of the unconditioned conflict tests, was used to investigate anxiolytic activity for several drugs such as Diazepam, Buspirone, etc (Allikmets et al, 1996; Belzung and Griebel, 2001; Cutler and Aitken, 1991; Leyre et al, 2004). In the present study, anxiolytic effect of azole compounds containing carbamoyl group represented by general structural formula (IX) was investigated on the LDB test in mice.
# The animals were treated with compound 30 min prior to testing. The light-dark box consisted of a plexiglas apparatus measuring 45 cm×27 cm×27 cm (L×W×H), and was partitioned into two compartments, one fully opaque (dark compartment made of black plexiglas: 18 cm of total length of apparatus), while the second was lit from the compartment ceiling by a 100 W bulb. A small opening (7×7 cm) in the partition wall allowed free passage between the light and dark compartments.
# Animals were placed at the lit compartment first, and the latency for escape into dark was checked and tested in the LDB for 5 min after the first entering into dark box. The animal, which the latency was over 2 min, was excluded from the test. Total time spent in the light compartment was counted. Movement of animal was checked through the TV-CCD camera by an experienced observer blind to the conditions of the experiment. A mouse whose four paws were in the new box was considered as having changed box.
# clonic seizures = settings: in vivo; cited from earlier work
# mice [6] = settings: probably by inhibition of cytochrome P-450; cited from earlier work
# mice and rats = settings: cited from earlier work
# [7] = read-out: Mice MES Protection % (mpk/peak time)
# T1 sequence (P23977 whole entry): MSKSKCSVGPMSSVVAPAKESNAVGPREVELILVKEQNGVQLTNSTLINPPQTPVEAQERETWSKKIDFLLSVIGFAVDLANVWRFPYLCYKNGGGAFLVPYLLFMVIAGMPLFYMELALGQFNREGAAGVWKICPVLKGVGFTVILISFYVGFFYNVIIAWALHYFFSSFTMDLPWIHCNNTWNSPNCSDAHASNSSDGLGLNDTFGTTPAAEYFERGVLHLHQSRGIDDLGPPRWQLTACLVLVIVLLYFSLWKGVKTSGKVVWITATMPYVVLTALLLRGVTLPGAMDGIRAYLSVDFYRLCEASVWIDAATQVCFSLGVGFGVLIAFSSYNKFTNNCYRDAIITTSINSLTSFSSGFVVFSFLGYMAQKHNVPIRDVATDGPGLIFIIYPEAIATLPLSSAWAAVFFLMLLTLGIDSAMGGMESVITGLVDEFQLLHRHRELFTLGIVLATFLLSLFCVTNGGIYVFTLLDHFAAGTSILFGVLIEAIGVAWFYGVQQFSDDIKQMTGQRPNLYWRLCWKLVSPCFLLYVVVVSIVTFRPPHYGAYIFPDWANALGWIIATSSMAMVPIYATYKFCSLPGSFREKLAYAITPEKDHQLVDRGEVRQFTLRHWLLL
compound,measurement,setting,value
"NC(=O)OC(Cn1nccn1)c1ccccc1Cl (stereo not drawn) [Example 1, Carbamic acid 1-(2-chloro-phenyl)-2-[1,2,3]triazol-2-yl-ethyl ester]",Mice FST Reduction of immobility %,mice [1],N.S
same,ED50,mice [2]; 0.5 h,10.7 mg/kg
same,TBPS Inhibition % (At 100 μM),[3],18.3%
same,inhibition at 10 µM,rat dopamine transporter,47.3%
same,ED50,mice [4]; 0.5 h,24.5 mg/kg
"NC(=O)OC(Cn1nccn1)c1ccc(Cl)cc1Cl (stereo not drawn) [Example 29, Carbamic acid 1-(2,4-dichloro-phenyl)-2-[1,2,3]triazol-2-yl-ethyl ester]",Mice FST Reduction of immobility %,mice [1],N.S
same,ED50,mice [2]; 1 h,14.4 mg/kg
same,inhibition at 10 µM,rat dopamine transporter,-27.5%
same,Mice LDB % Duration in the light box,mice [5]; dose not given,288.5% ^
same,ED50,mice [4]; 1 h,16.8 mg/kg
"NC(=O)O[C@H](Cn1ncnn1)c1ccc(Cl)c(Cl)c1 [Example 96, Carbamic acid (S)-1-(3,4-dichloro-phenyl)-2-tetrazol-2-yl-ethyl ester]",Mice FST Reduction of immobility %,mice [1]; dose not given,95.8%
same,ED50,mice [2]; 0.5 h,10.4 mg/kg
same,inhibition at 10 µM,rat dopamine transporter,98.4%
"O=C(Cn1ccnc1)c1ccc2ccccc2c1 [Nafimidone, 2-(1H-imidazole-1-yl)-1-(2-naphthalenyl)ethanone]","antagonism of clonic seizures induced by pentylenetetrazole, strychnine, bicuculline, or picrotoxin",clonic seizures,do not antagonize
same,hexobarbital-induced sleeping time,mice [6],potentiated
same,protection against maximal electroshock- or pentylenetetrazole-induced tonic seizures,mice and rats,protect
"NC(=O)OC(Cn1nccn1)c1ccc(Cl)c(Cl)c1 (stereo not drawn) [Example 25, Carbamic acid 1-(3,4-dichloro-phenyl)-2-[1,2,3]triazol-2-yl-ethyl ester]",Mice FST Reduction of immobility %,mice [1]; dose not given,94.1%
same,responders at 50 mg/kg,mice [2]; [7],100%
same,inhibition at 10 µM,rat dopamine transporter,70.7%
"CNC(=O)O[C@@H](Cn1ncnn1)c1ccccc1Cl [Example 45, Methyl-carbamic acid (R)-1-(2-chloro-phenyl)-2-tetrazol-2-yl-ethyl ester]",ED50,mice [2]; 0.5 h,4.88 mg/kg
same,inhibition at 10 µM,rat dopamine transporter,-58.1%
same,Mice LDB % Duration in the light box,mice [5],N.S
same,ED50,mice [4]; 0.5 h,5.81 mg/kg
"NC(=O)O[C@H](Cn1nccn1)c1ccc(Cl)c(Cl)c1 [Example 87, Carbamic acid (S)-1-(3,4-dichloro-phenyl)-2-[1,2,3]triazol-2-yl-ethyl ester]",Mice FST Reduction of immobility %,mice [1]; dose not given,92.5%
same,ED50,mice [2]; 0.5 h,14.8 mg/kg
same,TBPS Inhibition % (At 100 μM),[3],50.1%
same,inhibition at 10 µM,rat dopamine transporter,93.8%
same,Mice LDB % Duration in the light box,mice [5],N.S
"NC(=O)O[C@H](Cn1ncnn1)c1ccccc1Cl [Example 21, Carbamic acid (S)-1-(2-chloro-phenyl)-2-tetrazol-2-yl-ethyl ester]",ED50,mice [2]; 0.5 h,14.2 mg/kg
same,inhibition at 10 µM,rat dopamine transporter,20.9%
same,ED50,mice [4]; 0.5 h,28.8 mg/kg
"NC(=O)O[C@@H](Cn1ncnn1)c1ccccc1Cl [Example 20, Carbamic acid (R)-1-(2-chloro-phenyl)-2-tetrazol-2-yl-ethyl ester]",Mice FST Reduction of immobility %,mice [1]; dose not given,−24.3%
same,ED50,mice [2]; 0.5 h,4.24 mg/kg
same,inhibition at 10 µM,rat dopamine transporter,7.1%
same,ED50,mice [4]; 0.5 h,3.76 mg/kg
"NC(=O)OC(Cn1ncnn1)c1ccc(Cl)cc1Cl (stereo not drawn) [Example 30, Carbamic acid 1-(2,4-dichloro-phenyl)-2-tetrazol-2-yl-ethyl ester]",Mice FST Reduction of immobility %,mice [1],N.S
same,ED50,mice [2]; 1 h,14.9 mg/kg
same,inhibition at 10 µM,rat dopamine transporter,15.1%
same,Mice LDB % Duration in the light box,mice [5]; dose not given,143.6% ^
same,ED50,mice [4]; 1 h,12.2 mg/kg
"NC(=O)OC(Cn1ncnn1)c1ccccc1 (stereo not drawn) [Example 4, Carbamic acid 1-phenyl-2-tetrazol-2-yl-ethyl ester]",Mice FST Reduction of immobility %,mice [1]; dose not given,40.3%
same,responders at 30 mg/kg,"mice [2]; 0.5 h, read-out: Mice MES Protection % (mpk/peak time)",66.7%
same,inhibition at 10 µM,rat dopamine transporter,41.5%
"NC(=O)OC(Cn1ncnn1)c1ccc(Cl)c(Cl)c1 (stereo not drawn) [Example 26, Carbamic acid 1-(3,4-dichloro-phenyl)-2-tetrazol-2-yl-ethyl ester]",Mice FST Reduction of immobility %,mice [1]; dose not given,97.5%
same,responders at 50 mg/kg,mice [2]; [7],100%
same,inhibition at 10 µM,rat dopamine transporter,88.2%
"OC(Cn1ccnc1)c1ccc(CCc2ccccc2)cc1 (stereo not drawn) [denzimol, α-(4-(2-phenylethyl)phenyl)-1H-imidazole-1-ethanol]","antagonism of clonic seizures induced by pentylenetetrazole, strychnine, bicuculline, or picrotoxin",clonic seizures,do not antagonize
same,hexobarbital-induced sleeping time,mice [6],potentiated
same,protection against maximal electroshock- or pentylenetetrazole-induced tonic seizures,mice and rats,protect
"NC(=O)OC(Cn1nccn1)c1ccccc1 (stereo not drawn) [Example 7, Carbamic acid 1-phenyl-2-[1,2,3]triazol-2-yl-ethyl ester]",ED50,mice [2]; 0.5 h,26.2 mg/kg
same,inhibition at 10 µM,rat dopamine transporter,-21.1%
